Data from patent publication US11084795B2, “CFTR regulators and methods of use thereof” (The Regents of the University of California, priority 2015, dated 2021).
Values after ≈ are worked out from the molar mass of the structure shown. “Also recorded” adds a separate entry of the source.

Key:
[1] = molecular target: T1, ΔF508-CFTR (Homo sapiens, UniProt P13569, DEL508-508); test: Short-circuit current in FRT cells expressing ΔF508-CFTR corrected with VX-809; assay type: cell-based; details: after overnight incubation with a corrector
T1 construct: expressed in transfected cells; host or cells: Fischer rat thyroid (FRT) cells
Procedure: FIGS. 9A-9E. Characterization of CFTR activation by CFTRact-J027. Short-circuit current measured in FRT cells expressing human wild-type CFTR (FIG. 9A) and ΔF508-CFTR (FIG. 9C) showing responses to indicated concentrations of forskolin (fsk), CFTRact-J027, and VX-770. The ΔF508-CFTR-expressing FRT cells were corrected with 3 μM VX-809 at 37° C. for 24 h before measurement. CFTRinh-172 (Inh-172, 10 μM) was added where indicated. FIG. 9B. CFTRact-J027 concentration-dependent activation of wild-type CFTR Cl^− current (S.E.; n=3 cultures). FIG. 9D. Short-circuit current in mouse colon showing responses to indicated concentrations of forskolin (fsk), CFTRact-J027, and CFTRinh-172. FIG. 9E. Assay of cAMP concentration in FRT cells measured following 10-min incubation with indicated concentrations of forskolin and 5 μM CFTRact-J027. Positive controls included forskolin (100 nM and 20 μM), and forskolin plus 3-isobutyl-1-methylxanthine (IBMX, 100 μM) (mean±SE, n=4-8).

[2] = tested on: FRT cells; test: Alamar Blue cytotoxicity assay in FRT cells; assay type: cell-based, rat
[3] = 7-day oral administration toxicity study in mice; assay type: in vivo, mouse
Description: Chronic administration and toxicity studies.

[4] = tested on: C3H/HeJ mice; test: Genetic mouse model of chronic constipation (C3H/HeJ); assay type: in vivo
Procedure: The efficacy of orally administered CFTRact-J027 (10 mg/kg) was also tested in a genetically constipated mouse strain (15) (C3H/HeJ, age 8-11 weeks) and their wildtype counterparts (C3H/HeOuJ, age 8-11 weeks). Mice were placed in metabolic cages after CFTRact-J027 or vehicle administration at zero time and stool was collected for 4 h. Stool weight, pellet number and water content were determined as described above. Whole-gut transit time was measured to assess gut motility, in which mice treated with CFTRact-J027 (10 mg/kg, ip) or vehicle at zero time were given with 100 μL blue marker (5% Evans blue, 5% gum Arabic) orally. The time of blue dye appearance in stool was determined. All experiments in C3H/HeJ and C3H/HeOuJ mice were done in paired animals to minimize variability.

[5] = Solubility; assay type: physicochemical; details: read-out: solubility limit
[6] = 10 mg/kg orally once per day, 7 days, mean

T1 sequence (P13569 with tags, fused parts or gaps DEL508-508): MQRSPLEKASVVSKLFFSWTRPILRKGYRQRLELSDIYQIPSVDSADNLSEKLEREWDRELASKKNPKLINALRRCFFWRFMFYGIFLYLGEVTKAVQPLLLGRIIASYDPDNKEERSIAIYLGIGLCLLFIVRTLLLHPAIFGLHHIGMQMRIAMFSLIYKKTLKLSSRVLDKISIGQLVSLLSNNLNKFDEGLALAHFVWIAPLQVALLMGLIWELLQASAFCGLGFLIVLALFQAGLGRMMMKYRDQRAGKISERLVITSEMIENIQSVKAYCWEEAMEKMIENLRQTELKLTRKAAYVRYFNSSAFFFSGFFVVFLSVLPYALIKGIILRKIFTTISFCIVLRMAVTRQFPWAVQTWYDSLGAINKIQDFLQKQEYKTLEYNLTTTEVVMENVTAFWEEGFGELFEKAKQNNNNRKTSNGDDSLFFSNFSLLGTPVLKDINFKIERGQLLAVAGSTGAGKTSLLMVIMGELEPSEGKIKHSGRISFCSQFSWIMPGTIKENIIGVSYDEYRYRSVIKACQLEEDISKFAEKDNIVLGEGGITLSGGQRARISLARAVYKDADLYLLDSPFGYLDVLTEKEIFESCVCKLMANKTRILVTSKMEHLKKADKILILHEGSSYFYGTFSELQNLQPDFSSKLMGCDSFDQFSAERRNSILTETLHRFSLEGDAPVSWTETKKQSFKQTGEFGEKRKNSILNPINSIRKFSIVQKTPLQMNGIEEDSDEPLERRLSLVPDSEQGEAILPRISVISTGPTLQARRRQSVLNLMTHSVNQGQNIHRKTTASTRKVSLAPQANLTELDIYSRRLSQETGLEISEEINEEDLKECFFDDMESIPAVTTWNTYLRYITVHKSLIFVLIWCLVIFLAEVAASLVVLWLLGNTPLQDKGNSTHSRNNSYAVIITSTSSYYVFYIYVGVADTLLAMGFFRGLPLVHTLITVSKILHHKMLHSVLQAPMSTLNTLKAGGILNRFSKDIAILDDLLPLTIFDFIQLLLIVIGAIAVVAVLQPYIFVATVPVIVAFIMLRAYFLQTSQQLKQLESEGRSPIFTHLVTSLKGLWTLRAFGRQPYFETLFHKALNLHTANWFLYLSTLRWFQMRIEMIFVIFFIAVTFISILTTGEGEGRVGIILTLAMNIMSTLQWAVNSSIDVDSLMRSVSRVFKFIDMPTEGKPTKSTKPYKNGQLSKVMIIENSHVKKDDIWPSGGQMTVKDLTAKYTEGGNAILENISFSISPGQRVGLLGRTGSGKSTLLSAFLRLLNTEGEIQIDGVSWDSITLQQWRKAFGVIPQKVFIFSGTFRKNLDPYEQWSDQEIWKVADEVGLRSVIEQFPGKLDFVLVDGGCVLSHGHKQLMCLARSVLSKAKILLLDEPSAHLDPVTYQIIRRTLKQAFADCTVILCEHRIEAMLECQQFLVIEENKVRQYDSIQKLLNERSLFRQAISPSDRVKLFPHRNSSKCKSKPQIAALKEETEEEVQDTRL

## Nc1ccc([N+](=O)[O-])cc1-c1nc2ccccc2n(Cc2ccccc2)c1=O [CFTRact-J027, 3-(2-amino-5-nitrophenyl)-1-benzylquinoxalin-2(1H)-one]
[1]
  potentiation of ΔF508-CFTR: substantially less potent than ivacaftor; also recorded: only a weak potentiator
[2]; 20 μM
  cytotoxicity (Alamar Blue): did not show cytotoxicity
[2]; 25 μM
  in vitro cytotoxicity: did not show significant in vitro cytotoxicity
  non-cytotoxic concentration relative to EC50 for CFTR activation: > 100 fold
[2]; up to 100 μM, 1 or 24 h
  in vitro cytotoxicity: no appreciable in vitro cytotoxicity
[3]; 10 mg/kg oral
  toxicity after chronic administration: without apparent toxicity
[3]; [6]
  ALP: 53 U/L
  ALT: 44 U/L
  AST: 105 U/L
  Albumin: 2.9 g/dL
  BUN: 18.4 mg/dL
  Bicarbonate: 16 mmol/L
  CK: 312 U/L
  Calcium: 8.5 mg/dL
  Chloride: 115 mmol/L
  Cholesterol: 121 mg/dL
  Creatinine: 0.2 mg/dL
  Globulin: 2.2 g/dL
  Glucose: 164 mg/dL
  Hemoglobin: 12.8 g/dL
  Leukocytes: 1.9 ± 10^3/μL
  Phosphorus: 6.8 mg/dL
  Potassium: 4.4 mmol/L
  Sodium: 151 mmol/L
  Thrombocytes: 900 ± 10^3/μL
  Total bilirubin: 0.1 mg/dL
  Total protein: 5.2 g/dL
[3]; 7-day treated mice
  lung water content: normal lung water content
  major serum chemistry and blood parameters: did not affect the major serum chemistry and blood parameters
[3]; 7-day treated mice, 10 mg/kg oral
  body weight and airway/lung fluid accumulation: nor did it change body weight or produce airway/lung fluid accumulation
[4]; 10 mg/kg ip
  whole-gut transit time in C3H/HeJ mice: normalized the increased whole-gut transit time
[4]; 10 mg/kg oral, C3H/HeJ mice
  4-h stool weight, pellet number and water content: increased 4-h stool weight, pellet number and water content in C3H/HeJ mice to the level of wildtype controls
[4]; C3H/HeOuJ mice
  stool parameters and whole-gut transit time in wildtype control mice: did not affect stool parameters or whole-gut transit time
[5]
  solubility: ~20 µM (≈ 7.45 µg/mL)
